Measurements as given in ChEMBL document CHEMBL1139973, “Synthesis and structure-activity relationships of taxuyunnanine C derivatives as multidrug resistance modulator in MDR cancer cells” (Bioorg Med Chem Lett, 2007).

Tests used:
[1] = system: WI-38 VA13; assay: Growth inhibition of human VA13 cells; assay type: functional, cell-based
[2] = target: T1, ATP-dependent translocase ABCB1 (Homo sapiens, UniProt P08183); assay: Inhibition of Pgp in multidrug-resistant human 2780AD cells assessed as calcein accumulation at 25 ug/mL relative to control; assay type: cell-based; parameters: scale not given: the % may be the effect or the level left; settings: a2780 adr
[3] = target: T1, ATP-dependent translocase ABCB1; assay: Inhibition of Pgp in multidrug-resistant human 2780AD cells assessed as calcein accumulation at 2.5 ug/mL relative to control; assay type: cell-based; parameters: scale not given: the % may be the effect or the level left; settings: a2780 adr
[4] = target: T1, ATP-dependent translocase ABCB1; assay: Inhibition of Pgp in multidrug-resistant human 2780AD cells assessed as vincristine accumulation at 0.1 ug/mL relative to verapamil; assay type: cell-based; parameters: scale not given: the % may be the effect or the level left; settings: a2780 adr
[5] = target: T1, ATP-dependent translocase ABCB1; assay: Inhibition of Pgp in multidrug-resistant human 2780AD cells assessed as calcein accumulation at 0.25 ug/mL relative to control; assay type: cell-based; parameters: scale not given: the % may be the effect or the level left; settings: a2780 adr
[6] = target: T1, ATP-dependent translocase ABCB1; assay: Inhibition of Pgp in multidrug-resistant human 2780AD cells assessed as vincristine accumulation at 1.0 ug/mL relative to verapamil; assay type: cell-based; parameters: scale not given: the % may be the effect or the level left; settings: a2780 adr
[7] = target: T1, ATP-dependent translocase ABCB1; assay: Inhibition of Pgp in multidrug-resistant human 2780AD cells assessed as vincristine accumulation at 10 ug/mL relative to control; assay type: cell-based; parameters: scale not given: the % may be the effect or the level left; settings: a2780 adr
[8] = target: T1, ATP-dependent translocase ABCB1; assay: Inhibition of Pgp in multidrug-resistant human 2780AD cells assessed as vincristine accumulation at 0.1 ug/mL relative to control; assay type: cell-based; parameters: scale not given: the % may be the effect or the level left; settings: a2780 adr
[9] = target: T1, ATP-dependent translocase ABCB1; assay: Inhibition of Pgp in multidrug-resistant human 2780AD cells assessed as vincristine accumulation at 10 ug/mL relative to verapamil; assay type: cell-based; parameters: scale not given: the % may be the effect or the level left; settings: a2780 adr
[10] = Growth inhibition of human WI38 cells; assay type: cell-based; settings: WI-38
[11] = target: T1, ATP-dependent translocase ABCB1; assay: Inhibition of Pgp in multidrug-resistant human 2780AD cells assessed as vincristine accumulation at 1.0 ug/mL relative to control; assay type: cell-based; parameters: scale not given: the % may be the effect or the level left; settings: a2780 adr
[12] = system: HepG2; assay: Growth inhibition of human HepG2 cells; assay type: functional, cell-based

T1 sequence (P08183 whole entry): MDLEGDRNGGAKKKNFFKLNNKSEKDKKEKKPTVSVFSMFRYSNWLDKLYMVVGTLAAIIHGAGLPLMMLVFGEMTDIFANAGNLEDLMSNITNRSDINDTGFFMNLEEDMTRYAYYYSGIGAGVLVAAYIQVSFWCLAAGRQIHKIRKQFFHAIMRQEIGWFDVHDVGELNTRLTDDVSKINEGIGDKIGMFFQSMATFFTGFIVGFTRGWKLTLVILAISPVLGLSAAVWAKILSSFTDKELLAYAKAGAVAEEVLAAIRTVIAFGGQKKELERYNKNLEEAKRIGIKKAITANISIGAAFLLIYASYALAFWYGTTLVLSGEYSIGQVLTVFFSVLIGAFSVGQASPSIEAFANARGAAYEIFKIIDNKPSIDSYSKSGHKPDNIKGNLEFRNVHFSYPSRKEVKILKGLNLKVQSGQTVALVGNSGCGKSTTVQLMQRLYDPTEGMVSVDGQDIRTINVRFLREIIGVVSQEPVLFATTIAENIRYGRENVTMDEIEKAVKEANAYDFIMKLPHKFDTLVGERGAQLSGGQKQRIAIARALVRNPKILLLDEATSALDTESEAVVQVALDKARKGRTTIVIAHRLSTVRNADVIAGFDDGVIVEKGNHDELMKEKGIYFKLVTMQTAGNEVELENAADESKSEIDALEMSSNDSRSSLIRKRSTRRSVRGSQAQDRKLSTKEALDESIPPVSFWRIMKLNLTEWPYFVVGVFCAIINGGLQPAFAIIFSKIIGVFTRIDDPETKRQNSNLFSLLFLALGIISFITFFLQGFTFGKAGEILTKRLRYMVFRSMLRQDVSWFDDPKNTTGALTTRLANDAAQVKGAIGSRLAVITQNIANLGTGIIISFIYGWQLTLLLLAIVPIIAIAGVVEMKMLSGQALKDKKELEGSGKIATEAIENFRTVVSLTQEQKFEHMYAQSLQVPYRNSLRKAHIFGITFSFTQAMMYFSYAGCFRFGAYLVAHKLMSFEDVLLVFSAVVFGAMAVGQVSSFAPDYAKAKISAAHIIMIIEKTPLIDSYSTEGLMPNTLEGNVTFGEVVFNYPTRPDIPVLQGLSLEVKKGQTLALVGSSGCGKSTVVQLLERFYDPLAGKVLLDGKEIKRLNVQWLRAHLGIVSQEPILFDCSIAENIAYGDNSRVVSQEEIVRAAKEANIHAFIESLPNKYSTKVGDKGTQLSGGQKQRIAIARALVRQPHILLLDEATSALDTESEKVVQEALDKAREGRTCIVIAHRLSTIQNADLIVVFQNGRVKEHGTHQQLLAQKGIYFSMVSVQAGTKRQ

| SMILES | Activity [2] [%] | Activity [3] [%] | Activity [4] [%] | Activity [5] [%] | Activity [6] [%] | Activity [7] [%] | Activity [8] [%] | Activity [9] [%] | Activity [11] [%] | IC50 [12] [µM] | IC50 [1] [µM] | IC50 [10] [µM] |
| --- | --- | --- | --- | --- | --- | --- | --- | --- | --- | --- | --- | --- |
| C=C1[C@@H](OC(C)=O)CC[C@@]2(C)C[C@H](OC(C)=O)C3=C(C)C[C@H](OC(C)=O)[C@@H]([C@@H](O)[C@H]12)C3(C)C | 111 | 99 | 89 | 99 | 84 | 259 | 101 | 74 | 144 | 122 | 104 | 130 |
| C=C1[C@@H](OC(C)=O)CC[C@@]2(C)C[C@H](OC(=O)/C=C/c3ccccc3)C3=C(C)C[C@H](O)[C@@H]([C@@H](OC(C)=O)[C@H]12)C3(C)C | 113 | 113 | 105 | 109 | 102 | 497 | 114 | 110 | 190 | 15.3 | 11.5 | 71.7 |
| C=C1[C@@H](OC(C)=O)C[C@H](OC(=O)/C=C/c2ccccc2)[C@@]2(C)C[C@H](OC(C)=O)C3=C(C)C[C@H](OC(=O)C(C)CC)[C@@H]([C@@H](OC(C)=O)[C@H]12)C3(C)C (stereo partly specified) | 102 | 98 |  | 96 |  |  |  |  |  | > 144 | > 144 | > 144 |
| C=C1[C@@H](OC(C)=O)C[C@H](O)[C@@]2(C)C[C@H](OC(C)=O)C3=C(C)C[C@H](OC(=O)C(C)C(C)O)[C@@H]([C@@H](OC(C)=O)[C@H]12)C3(C)C (stereo partly specified) | 107 | 104 |  | 87 |  |  |  |  |  | 153 | > 173 | 140 |
| C=C1[C@@H](OC(C)=O)CC[C@@]2(C)C[C@H](OC(C)=O)C3=C(C)C[C@H](OC(C)=O)[C@@H]([C@@H](OC(C)=O)[C@H]12)C3(C)C [TAXUYUNNANINE C] | 127 | 141 |  | 130 |  |  |  |  |  | 18.5 | 53.1 | 130 |
| C=C1[C@@H](OC(C)=O)CC[C@@]2(C)C[C@H](OC(=O)/C=C/c3ccccc3)C3=C(C)C[C@H](OC(=O)/C=C/c4ccccc4)[C@@H]([C@@H](OC(C)=O)[C@H]12)C3(C)C | 80 | 80 | 83 | 83 | 49 | 122 | 91 | 27 | 92 | > 147 | > 147 | > 147 |
| C=C1[C@@H](OC(C)=O)CC[C@@]2(C)C[C@H](OC(C)=O)C3=C(C)C[C@H](OC(=O)C(C)C)[C@@H]([C@@H](OC(C)=O)[C@H]12)C3(C)C | 148 | 139 |  | 133 |  |  |  |  |  | 28 | 90.9 | > 188 |
| C=C1[C@@H](O)CC[C@@]2(C)C[C@H](OC(C)=O)C3=C(C)C[C@H](OC(C)=O)[C@@H]([C@@H](OC(C)=O)[C@H]12)C3(C)C | 141 | 118 |  | 118 |  |  |  |  |  | 183 | 105 | 149 |
| C=C1[C@@H](OC(C)=O)CC[C@@]2(C)C[C@H](OC(C)=O)C3=C(C)C[C@H](OC(=O)c4ccccc4)[C@@H]([C@@H](OC(C)=O)[C@H]12)C3(C)C | 133 | 107 |  | 90 |  |  |  |  |  | 144 | > 176 | > 176 |
| C=C1[C@@H](OC(C)=O)CC[C@@]2(C)C[C@H](OC(C)=O)C3=C(C)C[C@H](OC(=O)CC)[C@@H]([C@@H](OC(C)=O)[C@H]12)C3(C)C | 119 | 98 |  | 104 |  |  |  |  |  | 86.4 | 93.7 | > 193 |
| C=C1[C@@H](OC(C)=O)C[C@H](OC(=O)/C=C/c2ccccc2)[C@@]2(C)C[C@H](OC(C)=O)C3=C(C)C[C@H](OC(=O)C(C)C(C)O)[C@@H]([C@@H](OC(C)=O)[C@H]12)C3(C)C (stereo partly specified) | 130 | 102 |  | 97 |  |  |  |  |  | 80.4 | 49.9 | 62.4 |
| C=C1[C@@H](OC(C)=O)CC[C@@]2(C)C[C@H](OC(=O)/C=C/c3ccccc3)C3=C(C)C[C@H](OC(C)=O)[C@@H]([C@@H](OC(C)=O)[C@H]12)C3(C)C | 126 | 123 | 130 | 92 | 118 | 451 | 132 | 81 | 209 | 106 | > 169 | > 169 |
| C=C1[C@@H](OC(C)=O)CC[C@@]2(C)C[C@H](OC(C)=O)C3=C(C)C[C@H](OC(=O)CCCC)[C@@H]([C@@H](OC(C)=O)[C@H]12)C3(C)C | 111 | 88 |  | 94 |  |  |  |  |  | 16.6 | 56.7 | > 183 |

Further lines, with some results ahead:

| Activity [2] [%] | Activity [3] [%] | Activity [4] [%] | Activity [5] [%] | Activity [6] [%] | Activity [7] [%] | Activity [8] [%] | Activity [9] [%] | Activity [11] [%] | IC50 [12] [µM] | SMILES | IC50 [1] [µM] | IC50 [10] [µM] |
| --- | --- | --- | --- | --- | --- | --- | --- | --- | --- | --- | --- | --- |
| 119 | 86 |  | 100 |  |  |  |  |  | 41.7 | C=C1[C@@H](OC(C)=O)CC[C@@]2(C)C[C@H](OC(C)=O)C3=C(C)C[C@H](OC(=O)C(C)CC)[C@@H]([C@@H](OC(C)=O)[C@H]12)C3(C)C (stereo partly specified) | 61.1 | > 183 |
| 110 | 101 | 79 | 102 | 58 | 168 | 86 | 37 | 108 | 128 | C=C1[C@@H](OC(C)=O)CC[C@@]2(C)[C@@H](O)[C@H](OC(C)=O)C3=C(C)C[C@H](OC(C)=O)[C@@H]([C@@H](OC(C)=O)[C@H]12)C3(C)C | > 192 | 129 |
| 110 | 98 |  | 94 |  |  |  |  |  | 75.2 | C=C1[C@@H](OC(C)=O)C[C@H](O)[C@@]2(C)C[C@H](OC(C)=O)C3=C(C)C[C@H](OC(=O)C(C)CC)[C@@H]([C@@H](OC(C)=O)[C@H]12)C3(C)C (stereo partly specified) | 79.1 | 81.6 |
| 114 | 98 |  | 97 |  |  |  |  |  | 18.5 | C=C1[C@@H](OC(C)=O)CC[C@@]2(C)C[C@H](OC(C)=O)C3=C(C)C[C@H](OC(=O)CCC)[C@@H]([C@@H](OC(C)=O)[C@H]12)C3(C)C | 17.2 | 73.4 |
| 91 | 105 |  | 89 |  |  |  |  |  | 10.3 | C=C1[C@@H](OC(C)=O)CC[C@@]2(C)C[C@H](OC(C)=O)C3=C(C)CC[C@@H]([C@@H](OC(C)=O)[C@H]12)C3(C)C | 12.2 | 8.93 |
| 121 | 95 |  | 102 |  |  |  |  |  | 9.95 | C=C1[C@@H](OC(=O)/C=C/c2ccccc2)CC[C@@]2(C)C[C@H](OC(C)=O)C3=C(C)C[C@H](OC(C)=O)[C@@H]([C@@H](OC(C)=O)[C@H]12)C3(C)C | 125 | 99 |
| 125 | 103 |  | 102 |  |  |  |  |  | > 154 | C=C1[C@@H](OC(C)=O)CC[C@@]2(C)[C@@H](OC(=O)/C=C/c3ccccc3)[C@H](OC(C)=O)C3=C(C)C[C@H](OC(C)=O)[C@@H]([C@@H](OC(C)=O)[C@H]12)C3(C)C | > 154 | 151 |
| 125 | 96 |  | 98 |  |  |  |  |  | 51.9 | C=C1[C@@H](OC(C)=O)CC[C@@]2(C)C[C@H](OC(C)=O)C3=C(C)C[C@H](OC(C)=O)[C@@H]([C@@H](OC(=O)c4ccccc4)[C@H]12)C3(C)C | 175 | 125 |
| 111 | 98 | 84 | 103 | 64 | 229 | 92 | 51 | 119 | 108 | C=C1[C@@H](OC(C)=O)CC[C@@]2(C)C[C@H](O)C3=C(C)C[C@H](OC(C)=O)[C@@H]([C@@H](OC(C)=O)[C@H]12)C3(C)C | 12.6 | 105 |
| 125 | 126 | 87 | 123 | 75 | 280 | 95 | 62 | 140 | > 169 | C=C1[C@@H](OC(C)=O)CC[C@@]2(C)C[C@H](OC(C)=O)C3=C(C)C[C@H](OC(=O)/C=C/c4ccccc4)[C@@H]([C@@H](OC(C)=O)[C@H]12)C3(C)C | > 169 | 154 |
| 168 | 94 |  | 81 |  |  |  |  |  | 18.5 | C=C1[C@@H](OC(C)=O)CC[C@@]2(C)C[C@H](OC(C)=O)C3=C(C)C[C@H](OC(=O)C(C)C(C)O)[C@@H]([C@@H](OC(C)=O)[C@H]12)C3(C)C (stereo partly specified) [YUNNANXANE] | 9.29 | 79.4 |
